Entries after “also recorded” stand apart in the source; their conditions may differ. Like-named read-outs stand apart in the source and are kept apart here.
Legend:
[1] = tested on: NF-κB signaling in A549 cells bearing a stably transfected NF-κB-driven luciferase reporter gene; experiment: NF-κB luciferase reporter assay, TNF-α induced; type: cell-based; conditions: tested at 5-20 μM, 20 μM the highest concentration tested
[2] = Reaction with excess cysteamine monitored by 1H NMR; type: physicochemical
La antigen = target: T1, La antigen (Homo sapiens, UniProt P05455); conditions: cited from earlier work
T1 sequence (P05455 100-324 limits assumed): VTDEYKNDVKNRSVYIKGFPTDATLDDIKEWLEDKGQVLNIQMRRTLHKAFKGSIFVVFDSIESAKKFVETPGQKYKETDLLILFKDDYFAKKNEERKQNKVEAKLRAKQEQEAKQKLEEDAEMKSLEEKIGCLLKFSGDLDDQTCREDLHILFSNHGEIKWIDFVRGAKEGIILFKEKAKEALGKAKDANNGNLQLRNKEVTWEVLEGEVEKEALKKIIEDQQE

[3] = tested on: NF-κB signaling in HEK293 cells containing a stably transfected NF-κB-driven SEAP reporter gene; experiment: NF-κB secreted alkaline phosphatase; type: cell-based, human; conditions: tested at 1-7.5 μM, SEAP reporter assay
Vero cells = experiment: Vero cell viability assay; type: cell-based, African green monkey; conditions: 48 h
HEK293/NF-κB-SEAP cells = experiment: Cellular cytotoxicity accompanying the SEAP reporter assay; type: cell-based, human; conditions: 7.5 μM
[4] = cited from earlier work
A549/NF-κB-luc cells = conditions: 10 μM, A549/NF-κB-luc assay; cited from earlier work

C=C1C(=O)N(c2ccc(OC)cc2)[C@@H]2C3=C(c4ccccc4)C(=O)CC3=C(C)CC[C@@H]12 (relative stereo) [Compound 52, (3aS*,9bS*)-1-(4-Methoxyphenyl)-6-methyl-3-methylene-9-phenyl-1,3a,4,5,7,9b-hexahydro-2H-azuleno[4,5-b]pyrrole-2,8(3H)-dione]
NF-κB inhibition (in words) [1]: no inhibitory activities; also recorded: little NF-κB inhibitory activity; also recorded: no NF-κB inhibition

C=C1C(=O)N[C@@H]2C3=C(c4ccccc4)C(=O)CC3=C(C)CC[C@@H]12 (relative stereo) [Compound 45, (3aS*,9bS*)-6-Methyl-3-methylene-9-phenyl-3,3a,4,5-tetrahydro-1H-azuleno[4,5-b]pyrrole-2,8(7H,9bH)-dione]
NF-κB inhibition (in words) [1]: did not inhibit NF-κB signaling; also recorded: no NF-κB inhibition

C=C1C(=O)N(S(=O)(=O)c2ccc(C)cc2)[C@@H]2C3=C(c4ccccc4)C(=O)CC3=C(C)CC[C@@H]12 (relative stereo) [Compound 54, (3aS*,9bS*)-6-Methyl-3-methylene-9-phenyl-1-tosyl-1,3a,4,5,7,9b-hexahydro-2H-azuleno[4,5-b]pyrrole-2,8(3H)-dione]
time to complete reaction with cysteamine ([2]; cysteamine (15 equiv), CDCl3, rt, disappearance of methylene resonances by 1H NMR): less than 10 min

C=CC(=O)N1CCC[C@@H](n2nc(-c3ccc(Oc4ccccc4)cc3)c3c(N)ncnc32)C1 [Ibrutinib]
ALARM NMR result (La antigen): ALARM NMR negative

3-methylene-9-phenyl-3,3a,4,5-tetrahydroazuleno[4,5-b]furan-2,8(7H,9bH)-dione [Compound S17]
Half-life ([2]; HSCH2CH2NH2 (15 equiv), CDCl3 (0.006 M), rt): 7 min

C=C1C(=O)N[C@@H]2C3=CC(=O)CC3=C(C)CC[C@@H]12 (relative stereo) [Compound 47, (3aS*,9bS*)-6-Methyl-3-methylene-1,3a,4,5,7,9b-hexahydro-2H-azuleno[4,5-b]pyrrole-2,8(3H)-dione]
NF-κB inhibition (in words) [3]: little or no inhibition
NF-κB inhibition (in words) [1]: did not inhibit NF-κB signaling; also recorded: little or no inhibition
cytotoxicity (in words) (Vero cells): low cytotoxicity

C=C1C(=O)N(C)[C@@H]2C3=C(c4ccccc4)C(=O)CC3=C(C)CC[C@@H]12 (relative stereo) [Compound 48, (3aS*,9bS*)-1,6-Dimethyl-3-methylene-9-phenyl-1,3a,4,5,7,9b-hexahydro-2H-azuleno[4,5-b]pyrrole-2,8(3H)-dione]
NF-κB inhibition (in words) [1]: no inhibitory activities

C=C1C(=O)O[C@@H]2[C@H]3O[C@]3(C)CC/C=C(\C)CC[C@@H]12 [PTL, parthenolide]
cytotoxicity (in words) (HEK293/NF-κB-SEAP cells): moderate level of cytotoxicity
time to complete reaction with cysteamine [4]: less than 5 min
cytotoxicity (in words) (A549/NF-κB-luc cells): no cytotoxicity

C=C1C(=O)N(c2ccccc2)[C@@H]2C3=C(c4ccccc4)C(=O)CC3=C(C)CC[C@@H]12 (relative stereo) [Compound 49, (3aS*,9bS*)-6-Methyl-3-methylene-1,9-diphenyl-1,3a,4,5,7,9b-hexahydro-2H-azuleno[4,5-b]pyrrole-2,8(3H)-dione]
NF-κB inhibition (in words) [1]: no inhibitory activities; also recorded: little NF-κB inhibitory activity; also recorded: no NF-κB inhibition

Source: publication PMC8877724 (Journal of medicinal chemistry, 2020)
